Reference: US20240197681A1, “METHODS AND COMPOSITIONS RELATING TO PS[…] SEROTONIN RECEPTOR MODULATORS” (Terran Biosciences Inc., priority 2021, published 2024)
“Also recorded” adds a separate entry of the source. Like-named read-outs stand apart in the source and are kept apart here.

Experiments:
Healthy Volunteers [1] = experiment: Resting-state fMRI: global brain connectivity (GBC) and functional connectivity (FC); assay type: in vivo, humans; conditions: ketanserin 60 minutes before LSD; for LSD induced neural changes at 300 minutes in the presence of ketanserin: absence of psychotomimetic effects
Text: The used dataset was acquired in the course of a registered clinical trial (ClinicalTrials.gov Identifier: NCT02451072) entitled: The Role of 5-HT2A Receptor in the Perception of Self and Personal Meaning in Healthy Volunteers. Participants, study design, neuroimaging data acquisition, preprocessing and global brain connectivity calculation are detailed in Preller et al. (eLife. 2018 Oct. 25; 7:e35082. Changes in global and thalamic brain connectivity in LSD-induced altered states of consciousness are attributable to the 5-HT2A receptor, PMID: 30355445). The relevant methodological sections pertinent to the current analysis are summarized below.
24 subjects were included in the dataset (n=19 males; mean age=25.0 years, standard deviation=3.6 years, range=20-34 years). All included subjects were healthy, as confirmed by medical history, physical examination, blood analysis, electrocardiogra Mini-International Neuropsychiatric Interview (MINI-SCID) [Sheehan et al., 1998], the DSM-IV self-rating questionnaire for Axis-II personality disorders (SCIS-II) [Fydrich et al., 1997], and the Hopkins Symptom Checklist (SCL-90R) [Franke, 1995]. Subjects were required to abstain from prescription or illicit drugs, alcohol, smoking and caffeine.
The study was designed as a fully double-blind, randomized, within-subject cross-over study. During a session, subjects were pretreated with either a placebo or the 5-HT2A receptor antagonist Ketanserin 60 minutes before being treated with either a placebo or LSD. Thus, each subject participated in 3 sessions in which they underwent each of the following pretreatment · treatment conditions in a randomized, balanced order: • a) Placebo+placebo • b) Placebo+LSD • c) Ketanserin+LSD Two resting-state scans were performed, one 75 and the other 300 minutes after treatment. To assess participants' experience, a retrospective self-report questionnaire (5D-ASC, [Dittrich, 1998]) was administered 720 minutes after treatment, and a shorter version of the 5D-ASC 180, 250 and 360 minutes after treatment. […]

Healthy Volunteers [2] = conditions: cited from earlier work; for subjective (psychotomimetic) LSD effects versus placebo at 360 minutes: 5D-ASC short version
[3] = system: hippocampal area CA1 in anesthetized mice; experiment: In vivo electrophysiology: local field potentials in hippocampal CA1; conditions: for effect of ketanserin pretreatment on psilocybin-induced reduction in low frequency (delta) LFP power: ketanserin 2 mg/kg i.p. 60 minutes before psilocybin 10 mg/kg i.p., 15-25 minutes following psilocybin injection
C57Bl/6J mice [4] = experiment: Sucrose preference test (SPT) after chronic multimodal stress (CMMS); assay type: in vivo; conditions: stress-susceptible male mice after 10-14 days CMMS; single drug (psilocybin 1 mg/kg i.p. or ketanserin 2 mg/kg i.p.) plus vehicle injection; 24-48 hours after injection
C57Bl/6J mice [5] = experiment: Female urine sniff test (FUST) after chronic multimodal stress (CMMS); assay type: in vivo; conditions: stress-susceptible male mice after 10-14 days CMMS; single drug (psilocybin 1 mg/kg i.p. or ketanserin 2 mg/kg i.p.) plus vehicle injection; 24-48 hours after injection
TA-CA1 synapses = experiment: In vitro electrophysiology: AMPA:NMDA ratios of TA-CA1 fEPSPs in hippocampal slices from treated mice; assay type: in vivo; conditions: ketanserin 2 mg/kg 60 minutes prior to psilocybin 1 mg/kg; CMMS mice
Procedure: Standard methods were used to prepare […] hippocampal slices. Briefly, mice were euthanized via exposure to isoflurane followed by decapitation. Brains were excised and the hippocampus was quickly dissected from the brain and sectioned on a Leica VT1200 series vibratome in ice-cold artificial cerebrospinal fluid (ACSF) bubbled with 95% O2/5% CO2. The ACSF contained: 124 mM NaCl, 3 mM KCl, 1.25 mM NaH2PO4, 1.5 mM MgSO4, 2.5 mM CaCl2, 26 mM NaHCO3, and 10 mM glucose. Slices were allowed to recover for a minimum of 60 minutes at room temperature in ACSF in a humidified interface chamber before recording.
Use of extracellular recording, rather than whole-cell recording, was chosen for quantification of AMPA:NMDA ratios because of the complications of stress-induced changes in dendritic structure and their electrotonic influence on recordings of distal TA-CAI synapses. For quantification of AMPA:NMDA ratios, ACSF was prepared as stated, but without MgSO4, to leave NMDA channels unblocked. […] Five fEPSPs were again collected at the same stimulation intensities recorded prior to DNQX. […]
AMPA:NMDA ratios of the TA-CAI fEPSPs were quantified as described previously (A. J. Kallarackal et al., 2013 J. Neuroscience. 33, 15669-15764) in order to provide a measure of synaptic strength across slices from different mice. […]

C57Bl/6J mice [6] = experiment: Locomotion in open field arena; conditions: ketanserin 2 mg/kg 60 minutes prior to psilocybin 5 mg/kg
5-HT2A receptor = target: T1, 5-HT2A receptor (Mus musculus, UniProt P35363); experiment: Head twitch response (HTR); assay type: in vivo, mice; conditions: ketanserin 2 mg/kg 60 minutes prior to psilocybin 1 mg/kg, 15 minutes following injection
T1 construct: from tissue; host or cells: live mice (whole animal, brain receptors)
T1 sequence (P35363 whole entry): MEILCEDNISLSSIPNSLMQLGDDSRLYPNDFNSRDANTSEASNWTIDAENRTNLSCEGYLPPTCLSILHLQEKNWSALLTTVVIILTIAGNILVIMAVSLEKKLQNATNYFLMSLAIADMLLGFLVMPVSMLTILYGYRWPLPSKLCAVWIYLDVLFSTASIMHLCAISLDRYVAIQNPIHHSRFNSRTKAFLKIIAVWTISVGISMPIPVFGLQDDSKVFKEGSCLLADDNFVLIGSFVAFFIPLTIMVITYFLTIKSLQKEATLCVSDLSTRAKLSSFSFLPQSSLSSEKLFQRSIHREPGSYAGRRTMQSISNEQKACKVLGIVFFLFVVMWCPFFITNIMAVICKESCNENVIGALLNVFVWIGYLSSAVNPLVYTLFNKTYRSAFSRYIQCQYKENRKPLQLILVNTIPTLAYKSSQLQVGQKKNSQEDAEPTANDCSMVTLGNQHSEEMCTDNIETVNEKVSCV

| Structure (SMILES) | LSD induced neural changes at 300 minutes in the presence of ketanserin (Healthy Volunteers [1]) | subjective (psychotomimetic) LSD effects versus placebo at 360 minutes (Healthy Volunteers [2]; FIG. 20 reprinted from Preller 2018) | subjective (psychotomimetic) LSD effects versus placebo at 360 minutes (Healthy Volunteers [2]; FIG. 20 reprinted from Preller 2018, listed as Pla+LSD) | self-reported altered states of consciousness (5D-ASC short version) (Healthy Volunteers [2]; 180, 250 and 360 minutes after second drug administration, FIG. 20 reprinted from Preller 2018) | effect of ketanserin pretreatment on psilocybin-induced reduction in low frequency (delta) LFP power [3] | effect of ketanserin pretreatment on psilocybin-induced reduction in low frequency (delta) LFP power ([3]; listed as Ketanserin) | sucrose preference (SP) compared to values after CMMS (C57Bl/6J mice [4]) | female urine preference compared to values after CMMS (C57Bl/6J mice [5]) | effect of ketanserin pretreatment on the ability of psilocybin to restore AMPA:NMDA ratios (TA-CA1 synapses) | effect of ketanserin pretreatment on LSD-induced neural changes at 75 minutes (Healthy Volunteers [1]) | effect of ketanserin pretreatment on locomotion (C57Bl/6J mice [6]) | effect of ketanserin pretreatment on psilocybin-induced head-twitching (5-HT2A receptor activation) (5-HT2A receptor) | effect of ketanserin pretreatment on psilocybin-induced head-twitching (5-HT2A receptor activation) (5-HT2A receptor; listed as Ketanserin) | effect of ketanserin pretreatment on psychotomimetic (behavioral) effects of LSD (Healthy Volunteers [2]; ketanserin 60 minutes before LSD, all timepoints) | time of peak effect on low frequency LFP activity following psilocybin injection ([3]; psilocybin 10 mg/kg) [min] | duration of decrease of delta band power ([3]; psilocybin 10 mg/kg, i.p.) [min] | time to decrease of delta band power ([3]; psilocybin 10 mg/kg, i.p.) [min] |
| --- | --- | --- | --- | --- | --- | --- | --- | --- | --- | --- | --- | --- | --- | --- | --- | --- | --- |
| CCN(CC)C(=O)[C@@H]1C=C2c3cccc4[nH]cc(c34)C[C@H]2N(C)C1 [LSD, lysergic acid diethylamide] | reached near full effect within 300 minutes | still intense and high above placebo | still significantly elevated from placebo | substantial self-reported altered states of consciousness |  |  |  |  |  |  |  |  |  |  |  |  |  |
| O=C(c1ccc(F)cc1)C1CCN(CCn2c(=O)[nH]c3ccccc3c2=O)CC1 [ketanserin] | did not block the neural changes induced by LSD |  |  |  | inhibited; also recorded: significantly attenuated | greatly attenuated; also recorded: block | nor ketanserin alone (p=0.87; n=6) had a significant effect on SP; also recorded: no significant effect | nor ketanserin alone (p=0.072) had a significant effect on female urine preference; also recorded: no significant effect | did not impair | many of the immediate neural changes induced by LSD at 75 minutes | enhances hypolocomotive effects of psilocybin; also recorded: induced hypo-locomotion | prevents head-twitching; also recorded: sufficiently blocked 5-HT2A receptors; also recorded: sufficiently attenuated the activation of 5-HT2ARs | block 5-HT2AR-dependent head twitching | blocked all of the psychotomimetic effects of LSD; also recorded: fully blocked the behavioral effects of LSD |  |  |  |
| CN(C)CCc1c[nH]c2cccc(OP(=O)(O)O)c12 [psilocybin] |  |  |  |  |  |  |  |  |  |  |  |  |  |  | 15 to 25 | > 60 | ≤ 15 |
